Test system: transgenic Arabidopsis thaliana T1 plants
Assay: Detection of the herbicide tolerance of the transgenic Arabidopsis thaliana plants
Assay type: in vivo
Details: for The grade of pesticide damage/plant: 0 / The grade of pesticide damage/plant: 1 / The grade of pesticide damage/plant: 2 / The grade of pesticide damage/plant: 3: 7 DAT
Description: The transformed Arabidopsis thaliana T1 plants were initially selected using glufosinate herbicide. The Arabidopsis thaliana T1 plants (PPOA-01) into which the PPOA-01 nucleotide sequence was introduced, the Arabidopsis thaliana T1 plants (PPOB-01) into which the PPOB-01 nucleotide sequence was introduced, the Arabidopsis thaliana T1 plants (PPOC-01) into which the PPOC-01 nucleotide sequence was introduced, the Arabidopsis thaliana T1 plants (PPOD-01) into which the PPOD-01 nucleotide sequence was introduced, the Arabidopsis thaliana T1 plants (PPOE-01) into which the PPOE-01 nucleotide sequence was introduced, the Arabidopsis thaliana T1 plants (PPOF-01) into which the PPOF-01 nucleotide sequence was introduced, the Arabidopsis thaliana T1 plants (PPO-AP-01) into which the PPO-AP-01 nucleotide sequence was introduced, and the Arabidopsis thaliana T1 plants (control vector) into which the control vector was introduced, the wild-type Arabidopsis thaliana plants (CK) (with 24 plants being included in each genotype) (18 days after sowing) were sprayed with saflufenacil at three concentrations (25 g ai/ha (one-fold field concentration, 1×), 100 g ai/ha (four-fold field concentration, 4×), and 0 g ai/ha (water, 0×)), oxyfluorfen at three concentrations (180 g ai/ha (one-fold field concentration, 1×), 720 g ai/ha (four-fold field concentration, 4×), and 0 g ai/ha (water, 0×)), and flumioxazin at three concentrations (60 g ai/ha (one-fold field concentration, 1×), 240 g ai/ha (four-fold field concentration, 4×), and 0 g ai/ha (water, 0×) to determine the tolerance of Arabidopsis thaliana to the herbicides. After 7 days of spraying (7 DAT), the damage level of each plant caused by the herbicide was evaluated according to the average of the damage levels (%) of plants (the average of the damage levels (%) of plants=the injured leaf area/the total leaf area×100%), i.e., the grade of pesticide damage: grade 0 means that the growth status of plants is essentially consistent with those sprayed with the blank solvent (water); grade 1 means that the average of the damage levels of plants is less than 10%; grade 2 means that the average of the damage levels of plants is greater than 10%; and grade 3 means that the average of the damage levels of plants is 100%. The plants having a growth status falling within grades 0 and 1 are classified as highly resistant plants; those having a growth status falling within grade 2 are classified as poorly resistant plants; and those having a growth status falling within grade 3 are classified as non-resistant plants.

[1] = genotype Control vector, 180 g ai/ha
[2] = genotype Control vector, 720 g ai/ha
[3] = genotype PPO-AP-01, 180 g ai/ha
[4] = genotype PPO-AP-01, 720 g ai/ha

With CCOc1cc(Oc2ccc(C(F)(F)F)cc2Cl)ccc1[N+](=O)[O-] [oxyfluorfen, 2-chloro-1-(3-ethoxy-4-nitrophenoxy)-4-trifluoromethylbenzene] the “effective dose distinguishing sensitive plants from plants having an average level of resistance” value (Arabidopsis thaliana) was 180 g ai/ha, the “The grade of pesticide damage/plant: 0” value (genotype CK, 180 g ai/ha) was 0 plant and the “The grade of pesticide damage/plant: 1” value (genotype CK, 180 g ai/ha) was 0 plant. The “The grade of pesticide damage/plant: 2” value (genotype CK, 180 g ai/ha) was 0 plant, the “The grade of pesticide damage/plant: 3” value (genotype CK, 180 g ai/ha) was 24 plant and the “The grade of pesticide damage/plant: 0” value (genotype CK, 720 g ai/ha) was 0 plant. The “The grade of pesticide damage/plant: 1” value (genotype CK, 720 g ai/ha) was 0 plant, the “The grade of pesticide damage/plant: 2” value (genotype CK, 720 g ai/ha) was 0 plant and the “The grade of pesticide damage/plant: 3” value (genotype CK, 720 g ai/ha) was 24 plant. The “The grade of pesticide damage/plant: 0” value [1] was 0 plant, the “The grade of pesticide damage/plant: 1” value [1] was 0 plant and the “The grade of pesticide damage/plant: 2” value [1] was 0 plant. For the same molecule, the “The grade of pesticide damage/plant: 3” value [1] was 24 plant, the “The grade of pesticide damage/plant: 0” value [2] was 0 plant and the “The grade of pesticide damage/plant: 1” value [2] was 0 plant. The “The grade of pesticide damage/plant: 2” value [2] was 0 plant, the “The grade of pesticide damage/plant: 3” value [2] was 24 plant and the “The grade of pesticide damage/plant: 0” value [3] was 0 plant. The “The grade of pesticide damage/plant: 1” value [3] was 0 plant, the “The grade of pesticide damage/plant: 2” value [3] was 0 plant and the “The grade of pesticide damage/plant: 3” value [3] was 24 plant. The “The grade of pesticide damage/plant: 0” value [4] was 0 plant, the “The grade of pesticide damage/plant: 1” value [4] was 0 plant and the “The grade of pesticide damage/plant: 2” value [4] was 0 plant. For the same molecule, the “The grade of pesticide damage/plant: 3” value [4] was 24 plant, the “tolerance to the herbicide (in words)” value (genotype PPO-AP-01, at different concentrations) was “no tolerance” and the “The grade of pesticide damage/plant: 0” value (genotype PPOA-01, 180 g ai/ha) was 24 plant. For the same molecule, the “The grade of pesticide damage/plant: 1” value (genotype PPOA-01, 180 g ai/ha) was 0 plant, the “The grade of pesticide damage/plant: 2” value (genotype PPOA-01, 180 g ai/ha) was 0 plant and the “The grade of pesticide damage/plant: 3” value (genotype PPOA-01, 180 g ai/ha) was 0 plant. The “The grade of pesticide damage/plant: 0” value (genotype PPOA-01, 720 g ai/ha) was 24 plant, the “The grade of pesticide damage/plant: 1” value (genotype PPOA-01, 720 g ai/ha) was 0 plant and the “The grade of pesticide damage/plant: 2” value (genotype PPOA-01, 720 g ai/ha) was 0 plant. For the same molecule, the “The grade of pesticide damage/plant: 3” value (genotype PPOA-01, 720 g ai/ha) was 0 plant, the “The grade of pesticide damage/plant: 0” value (genotype PPOB-01, 180 g ai/ha) was 24 plant and the “The grade of pesticide damage/plant: 1” value (genotype PPOB-01, 180 g ai/ha) was 0 plant. For the same molecule, the “The grade of pesticide damage/plant: 2” value (genotype PPOB-01, 180 g ai/ha) was 0 plant, the “The grade of pesticide damage/plant: 3” value (genotype PPOB-01, 180 g ai/ha) was 0 plant and the “The grade of pesticide damage/plant: 0” value (genotype PPOB-01, 720 g ai/ha) was 24 plant. For the same molecule, the “The grade of pesticide damage/plant: 1” value (genotype PPOB-01, 720 g ai/ha) was 0 plant, the “The grade of pesticide damage/plant: 2” value (genotype PPOB-01, 720 g ai/ha) was 0 plant and the “The grade of pesticide damage/plant: 3” value (genotype PPOB-01, 720 g ai/ha) was 0 plant. For the same molecule, the “The grade of pesticide damage/plant: 0” value (genotype PPOC-01, 180 g ai/ha) was 24 plant, the “The grade of pesticide damage/plant: 1” value (genotype PPOC-01, 180 g ai/ha) was 0 plant and the “The grade of pesticide damage/plant: 2” value (genotype PPOC-01, 180 g ai/ha) was 0 plant. The “The grade of pesticide damage/plant: 3” value (genotype PPOC-01, 180 g ai/ha) was 0 plant, the “The grade of pesticide damage/plant: 0” value (genotype PPOC-01, 720 g ai/ha) was 24 plant and the “The grade of pesticide damage/plant: 1” value (genotype PPOC-01, 720 g ai/ha) was 0 plant. The “The grade of pesticide damage/plant: 2” value (genotype PPOC-01, 720 g ai/ha) was 0 plant, the “The grade of pesticide damage/plant: 3” value (genotype PPOC-01, 720 g ai/ha) was 0 plant and the “The grade of pesticide damage/plant: 0” value (genotype PPOD-01, 180 g ai/ha) was 24 plant. For the same molecule, the “The grade of pesticide damage/plant: 1” value (genotype PPOD-01, 180 g ai/ha) was 0 plant, the “The grade of pesticide damage/plant: 2” value (genotype PPOD-01, 180 g ai/ha) was 0 plant and the “The grade of pesticide damage/plant: 3” value (genotype PPOD-01, 180 g ai/ha) was 0 plant. The “The grade of pesticide damage/plant: 0” value (genotype PPOD-01, 720 g ai/ha) was 24 plant, the “The grade of pesticide damage/plant: 1” value (genotype PPOD-01, 720 g ai/ha) was 0 plant and the “The grade of pesticide damage/plant: 2” value (genotype PPOD-01, 720 g ai/ha) was 0 plant. For the same molecule, the “The grade of pesticide damage/plant: 3” value (genotype PPOD-01, 720 g ai/ha) was 0 plant, the “The grade of pesticide damage/plant: 0” value (genotype PPOE-01, 180 g ai/ha) was 22 plant and the “The grade of pesticide damage/plant: 1” value (genotype PPOE-01, 180 g ai/ha) was 2 plant. For the same molecule, the “The grade of pesticide damage/plant: 2” value (genotype PPOE-01, 180 g ai/ha) was 0 plant, the “The grade of pesticide damage/plant: 3” value (genotype PPOE-01, 180 g ai/ha) was 0 plant and the “The grade of pesticide damage/plant: 0” value (genotype PPOE-01, 720 g ai/ha) was 15 plant. The “The grade of pesticide damage/plant: 1” value (genotype PPOE-01, 720 g ai/ha) was 9 plant, the “The grade of pesticide damage/plant: 2” value (genotype PPOE-01, 720 g ai/ha) was 0 plant and the “The grade of pesticide damage/plant: 3” value (genotype PPOE-01, 720 g ai/ha) was 0 plant. The “The grade of pesticide damage/plant: 0” value (genotype PPOF-01, 180 g ai/ha) was 24 plant, the “The grade of pesticide damage/plant: 1” value (genotype PPOF-01, 180 g ai/ha) was 0 plant and the “The grade of pesticide damage/plant: 2” value (genotype PPOF-01, 180 g ai/ha) was 0 plant. The “The grade of pesticide damage/plant: 3” value (genotype PPOF-01, 180 g ai/ha) was 0 plant, the “The grade of pesticide damage/plant: 0” value (genotype PPOF-01, 720 g ai/ha) was 24 plant and the “The grade of pesticide damage/plant: 1” value (genotype PPOF-01, 720 g ai/ha) was 0 plant. For the same molecule, the “The grade of pesticide damage/plant: 2” value (genotype PPOF-01, 720 g ai/ha) was 0 plant, the “The grade of pesticide damage/plant: 3” value (genotype PPOF-01, 720 g ai/ha) was 0 plant and the “tolerance to the herbicide (in words)” value (genotypes PPOA-01 to PPOF-01, at different concentrations, compared with the control vector and CK) was “high-resistant tolerance”.

— patent US20250275540A1, “USE OF PROTOPORPHYRINOGEN OXIDASE” (BEIJING DABEINONG BIOTECHNOLOGY CO., LTD., priority 2022, published 2025)
